Literature values in patent US20150119345A1, “BILE ACID RECYCLING INHIBITORS FOR TREATMENT OF GASTROINTESTINAL INFECTIONS” (priority 2013, published 2015).

What was measured:
mice = conditions: 0.1 mg/kg rat or human GLP-2 to mice for 7-10 days

Question: For “GLP-2: 33 amino acid peptide, co-secreted along with GLP-1 from intestinal endocrine cells in the small and large intestine”, which “small bowel weight and villus height” value (mice) is on record?
Answer: increase in small bowel weight and villus height

Question: And the t½ in vivo?
Answer: short
